Target: T1, VLA-4 (Homo sapiens, UniProt P05556+P13612)
T1 construct: endogenous in cells; host or cells: Jurkat cells
Experiment: VLA-4 direct binding assay (VCAM-IgG alkaline phosphatase conjugate binding to Jurkat cells)
Settings: Table 1, Structure-Activity; assay and unit inferred; read-out: Act
Text: A direct binding assay may also be employed to quantitate the inhibitory activity of the compounds of this invention. (“DBA”) In direct binding assays, for example, a VCAM-IgG fusion protein containing the first two immunoglobulin domains of VCAM (D1D2) attached above the hinge region of an IgG1 molecule (“VCAM 2D-IgG”), is conjugated to a marker enzyme, such as alkaline phosphatase (“AP”). The synthesis of this VCAM-IgG fusion is described in PCT publication WO 90/13300, the disclosure of which is herein incorporated by reference. The conjugation of that fusion to a marker enzyme can be achieved by cross-linking methods well-known in the art.
The VCAM-IgG enzyme conjugate is then placed in the wells of a multi-well filtration plate, such as that contained in the Millipore Multiscreen Assay System (Millipore Corp., Bedford, Mass.). Varying concentrations of the test inhibitory compound are then added to the wells followed by addition of VLA-4-expressing cells. The cells, compound and VCAM-IgG enzyme conjugate are mixed together and allowed to incubate at room temperature.
Following incubation, the wells are vacuum drained, leaving behind the cells and any bound VCAM. Quantitation of bound VCAM is determined by adding an appropriate calorimetric substrate for the enzyme conjugated to VCAM-IgG and determining the amount of reaction product. Decreased reaction product indicates increased binding inhibitory activity. The protocol is described more specifically below:
1. Block a 96 well Millipore Multiscreen Assay System filtration plate^1 with 200:l/well of blocking buffer (1×Phosphate Buffered Saline, 0.1%Tween 20, 1%BSA) for at least 1 hour at room temperature.
2. Drain the plate with the vacuum manifold, and wash with 200 μl/well of assay buffer (Tris Buffered Saline, 0.1% BSA, 2 mM glucose, 10 mM HEPES, pH 7.5) draining the plate in between. Repeat twice. Then blot the plate bottom on paper to remove excess buffer.
3. Prepare a 4 μg/ml VCAMIg-AP solution (Alkaline phosphatase coupled to VCAMIg) in assay buffer and filter with a 0.2:low protein binding syringe filter (Gelman Sciences #4454). From this stock, prepare a 0.4 μg/ml working solution of VCAMIg-AP in assay buffer. Add 25:l of 0.4 μg/ml VCAMIg-AP to every well.
5. Prepare dilutions of compounds to be tested in assay buffer. Concentrations should be 4× the desired final concentration and run in triplicate. Add 25 μl of the compound dilutions to designated wells.
7. Jurkat cells are centrifuged to remove cell culture media and washed once in assay buffer. Resuspend the washed Jurkat cells to a concentration of 8×10^6/ml in assay buffer containing 2 mM MnCl2. Pipeting the mixture up and down to ensure a uniform cell suspension. Add 50:l of cell suspension to each well except the NSB wells.
8. Gently tap the sides of the plate to mix well contents. Incubate the plate for 60 minutes at room temperature (RT).
9. Place the plate on the vacuum manifold to drain the well contents. Wash twice with 100 μl/well of wash buffer (assay buffer containing 1 mM MnCl2). Drain the plate and blot on paper towels.
10. Add 10 mg/ml of 4-Nitro phenyl phosphate to Substrate buffer (0.1M glycine, 1 mM ZnCl2, 1 mM MgCl2, pH 10.5). Add 100 μl/well and incubate for exactly 30 minutes at RT.
11. To stop the reaction, add 100 μl/well of 3N NaOH.
12. Read the 96-well plate in a Molecular Devices ELISA platereader at 405 nm. Analyze data with SoftMax software.

T1 sequence (P13612 34-1032): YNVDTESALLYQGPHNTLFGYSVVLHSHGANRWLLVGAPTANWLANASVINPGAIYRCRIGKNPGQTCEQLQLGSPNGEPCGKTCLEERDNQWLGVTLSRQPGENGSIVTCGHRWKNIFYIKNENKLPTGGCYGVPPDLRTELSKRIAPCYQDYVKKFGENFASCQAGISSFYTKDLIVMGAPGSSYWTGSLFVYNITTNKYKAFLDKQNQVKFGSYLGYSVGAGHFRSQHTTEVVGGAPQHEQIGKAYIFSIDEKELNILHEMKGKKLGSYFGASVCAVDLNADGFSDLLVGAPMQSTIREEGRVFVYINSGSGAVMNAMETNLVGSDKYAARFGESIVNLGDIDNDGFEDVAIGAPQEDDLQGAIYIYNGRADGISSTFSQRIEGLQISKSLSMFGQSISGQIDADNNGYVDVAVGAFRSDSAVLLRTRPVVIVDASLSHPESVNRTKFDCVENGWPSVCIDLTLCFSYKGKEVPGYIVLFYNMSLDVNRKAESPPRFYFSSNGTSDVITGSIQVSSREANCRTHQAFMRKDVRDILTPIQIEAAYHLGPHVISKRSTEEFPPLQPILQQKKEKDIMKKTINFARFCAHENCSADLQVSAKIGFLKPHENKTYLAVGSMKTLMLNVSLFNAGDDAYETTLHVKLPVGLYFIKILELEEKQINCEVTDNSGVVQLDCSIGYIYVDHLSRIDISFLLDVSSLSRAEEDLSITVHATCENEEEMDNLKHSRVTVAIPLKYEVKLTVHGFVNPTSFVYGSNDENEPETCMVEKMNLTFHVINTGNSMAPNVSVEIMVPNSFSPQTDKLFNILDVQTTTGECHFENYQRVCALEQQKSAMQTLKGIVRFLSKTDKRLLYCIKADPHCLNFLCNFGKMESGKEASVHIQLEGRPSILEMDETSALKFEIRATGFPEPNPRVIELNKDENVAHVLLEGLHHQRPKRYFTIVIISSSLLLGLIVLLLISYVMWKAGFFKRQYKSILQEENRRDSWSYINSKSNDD
T1 sequence (P05556 21-798): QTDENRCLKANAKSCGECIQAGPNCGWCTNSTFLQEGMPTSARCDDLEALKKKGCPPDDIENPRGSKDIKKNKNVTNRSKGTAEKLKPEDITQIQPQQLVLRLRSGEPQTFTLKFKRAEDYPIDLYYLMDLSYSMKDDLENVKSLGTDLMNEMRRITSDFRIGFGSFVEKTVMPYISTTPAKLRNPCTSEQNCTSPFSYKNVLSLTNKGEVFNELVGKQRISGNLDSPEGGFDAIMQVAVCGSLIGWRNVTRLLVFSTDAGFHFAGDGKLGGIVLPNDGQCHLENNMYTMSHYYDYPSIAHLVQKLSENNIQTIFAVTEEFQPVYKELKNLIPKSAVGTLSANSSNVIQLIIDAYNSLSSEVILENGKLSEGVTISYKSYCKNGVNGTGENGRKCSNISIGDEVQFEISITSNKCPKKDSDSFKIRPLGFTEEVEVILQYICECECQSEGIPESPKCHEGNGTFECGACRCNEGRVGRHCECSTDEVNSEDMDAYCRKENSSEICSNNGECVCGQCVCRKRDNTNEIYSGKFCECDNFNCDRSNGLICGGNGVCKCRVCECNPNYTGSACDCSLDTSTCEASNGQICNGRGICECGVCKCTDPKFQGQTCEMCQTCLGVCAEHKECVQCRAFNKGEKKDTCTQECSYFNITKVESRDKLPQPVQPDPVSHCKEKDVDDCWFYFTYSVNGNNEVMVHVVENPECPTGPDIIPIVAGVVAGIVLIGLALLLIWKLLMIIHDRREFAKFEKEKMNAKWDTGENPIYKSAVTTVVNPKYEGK

| SMILES | IC50 [nM] |
| --- | --- |
| COc1cccc(C(=O)N(CCC(=O)O)CC(=O)N(CCC(C)C)CC(=O)Nc2ccc3c(c2)C(=O)CCCC3)c1 [AX3] | 15300 |
| COc1cccc(C(=O)N(CCC(=O)O)CC(=O)N(CCC(C)C)CC(=O)Nc2ccc(-n3cnc(Cl)c3Cl)cc2)c1 [AX4] | 15200 |
| COc1cccc(C(=O)N(CCC(=O)O)CC(=O)N(CCC(C)C)CC(=O)Nc2ccc(-c3nnc(-c4ccccc4)o3)cc2)c1 [AX5] | 35 |
| CSCCCN(CC(=O)Nc1ccccc1)C(=O)CN(CCC(=O)O)C(=O)c1ccccc1 [AX6] | 13500 |
| COc1ccc(C(=O)N(CCC(=O)O)CC(=O)N(CCC(C)C)CC(=O)Nc2ccccc2)cc1 [AX7] | 11500 |
| COc1cccc(C(=O)N(CCC(=O)O)CC(=O)N(CCC(C)C)CC(=O)Nc2ccc(N3CCOCC3)c(Cl)c2)c1 [AX9] | 7380 |
| CC(C)CCN(CC(=O)Nc1ccccc1)C(=O)CN(CCC(=O)O)C(=O)c1ccccc1 [AX12] | 4120 |
| COc1cccc(C(=O)N(CCC(=O)O)CC(=O)N(CCC(C)C)CC(=O)Nc2cccc(OCCOc3ccccc3)c2)c1 [AX13] | 3160 |
| COc1cccc(C(=O)N(CCC(=O)O)CC(=O)N(CCC(C)C)CC(=O)Nc2cccc(C(=O)CC(=O)Nc3nccs3)c2)c1 [AX15] | 2410 |
| COc1cccc(C(=O)N(CCC(=O)O)CC(=O)N(CCC(C)C)CC(=O)Nc2ccc(NC(=O)c3cc4ccccc4cn3)cc2)c1 [AX16] | 2840 |
| COc1cccc(C(=O)N(CCC(=O)O)CC(=O)N(CCC(C)C)CC(=O)Nc2ccccc2)c1 [AX18] | 1400 |
| COc1cccc(C(=O)N(CCC(=O)O)CC(=O)N(CCC(C)C)CC(=O)Nc2ccc(OCC(=O)Nc3ccccc3)cc2)c1 [AX19] | 6190 |
| COc1cccc(C(=O)N(CCC(=O)O)CC(=O)N(CCC(C)C)CC(=O)Nc2ccc(CC(=O)N3CCc4ccccc43)cc2)c1 [AX21] | 761 |
| Cc1ccccc1NC(=O)Nc1ccc(NC(=O)CN(CCC(C)C)C(=O)CN(CCC(=O)O)C(=O)CN2CCCCC2)cc1 [AX22] | 636 |
| COc1cccc(C(=O)N(CCC(=O)O)CC(=O)N(CCC(C)C)CC(=O)Nc2ccc(C(=O)CC(=O)Nc3ccccc3Cl)cc2)c1 [AX23] | 580 |
| CC(C)CN(CC(=O)Nc1ccc(NC(=O)Nc2ccccc2)cc1)C(=O)CN(CCC(=O)O)C(=O)Cc1ccccc1 [AX24] | 300 |
| Cc1ccccc1NC(=O)Nc1ccc(NC(=O)CN(CCC(C)C)C(=O)CN(CCC(=O)O)C(=O)COc2ccccc2)cc1 [AX25] | 246 |
| COc1cccc(C(=O)N(CCC(=O)O)CC(=O)N(CCC(C)C)CC(=O)Nc2ccc(NC(=O)c3c[nH]c4ccccc34)cc2)c1 [AX26] | 240 |
| CSCCCN(CC(=O)Nc1ccc(NC(=O)Nc2ccccc2)cc1)C(=O)CN(CCC(=O)O)C(=O)c1ccccc1 [AX27] | 200 |
| CC(C)CN(CC(=O)Nc1ccc(NC(=O)Nc2ccccc2)cc1)C(=O)CN(CCC(=O)O)C(=O)c1ccccc1 [AX28] | 150 |
| Cc1ccccc1NC(=O)Nc1ccc(NC(=O)CN(CCC(C)C)C(=O)CN(CCC(=O)O)C(=O)C2CCCCC2)cc1 [AX29] | 890 |
| CC(C)CCN(CC(=O)Nc1ccc(NC(=O)Nc2ccccc2)cc1)C(=O)CN(CCC(=O)O)C(=O)c1ccccc1 [AX33] | 95 |
| Cc1ccccc1NC(=O)Nc1ccc(NC(=O)CN(CCC(C)C)C(=O)CN(CCC(=O)O)C(=O)COc2ccccc2)cc1 [AX34] | 92 |
| Cc1ccccc1NC(=O)Nc1ccc(NC(=O)[C@@H]2CCCN2C(=O)CN(CCC(=O)O)C(=O)c2ccccc2)cc1 [AX35] | 85 |
| Cc1ccccc1NC(=O)Nc1ccc(NC(=O)CN(CCC(C)C)C(=O)CN(CCC(=O)O)C(=O)CBr)cc1 [AX36] | 63.2 |
| Cc1ccccc1NC(=O)Nc1ccc(NC(=O)CN(CCC(C)C)C(=O)CN(CCC(=O)O)C(=O)N2CCOCC2)cc1 [AX37] | 60.5 |
| Cc1ccccc1NC(=O)Nc1ccc(NC(=O)CN(CCC(=O)O)C(=O)CN(CCC(=O)O)C(=O)c2ccccc2)cc1 [AX38] | 60 |
| Cc1ccccc1NC(=O)Nc1ccc(NC(=O)[C@@H]2CSCN2C(=O)CN(CCC(=O)O)C(=O)c2ccccc2)cc1 [AX39] | 60 |

| SMILES | IC50 [nM] |
| --- | --- |
| Cc1ccccc1NC(=O)Nc1ccc(NC(=O)CN(CCC(C)C)C(=O)CN(CCC(=O)O)C(=O)CN2CCOCC2)cc1 [AX42] | 52 |
| Cc1c(C(=O)Nc2ccc3c(c2)C(=O)N(CCC(=O)O)CC(=O)N3C)c(=O)n(-c2ccccc2)n1C [BX6] | 15400 |
| CN1C(=O)CN(CCC(=O)O)C(=O)c2cc(NC(=O)Cc3ccc(NC(=O)Cc4c[nH]c5ccccc45)cc3)ccc21 [BX11] | 9050 |
| CN1C(=O)CN(CCC(=O)O)C(=O)c2cc(NC(=O)Cc3ccc(NC(=O)c4ccco4)cc3)ccc21 [BX12] | 6100 |
| CC1=NN(c2ccc(C(=O)Nc3ccc4c(c3)C(=O)N(CCC(=O)O)CC(=O)N4C)cc2)C(=O)C1 [BX13] | 5860 |
| Cc1ccccc1NC(=O)Nc1ccc(CC(=O)Nc2ccc3c(c2)C(=O)N(CCCCC(=O)O)CC(=O)N3C)cc1 [BX15] | 5130 |
| Cc1ccccc1NC(=O)Nc1ccc(CC(=O)NCc2ccc3c(c2)C(=O)N(CCC(=O)O)CC(=O)N3C)cc1 [BX16] | 5120 |
| Cc1ccccc1NC(=O)Nc1ccc(NC(=O)c2ccc3c(c2)C(=O)N(CCC(=O)O)CC(=O)N3C)cc1 [BX17] | 977 |
| Cc1ccccc1NC(=O)Nc1ccc(CNC(=O)c2ccc3c(c2)CN(C)C(=O)C(CC(=O)O)N3)cc1 (stereo not shown) [BX18] | 4430 |
| Cc1ccccc1NC(=O)Nc1ccc(CC(=O)N(C)c2ccc3c(c2)C(=O)N(CCC(=O)O)CC(=O)N3C)cc1 [BX23] | 3240 |
| Cc1ccccc1NC(=O)Nc1ccc(C(=O)NCc2ccc3c(c2)C(=O)N(CCC(=O)O)CC(=O)N3C)cc1 [BX29] | 825 |
| CN1C(=O)CN(CCC(=O)O)C(=O)c2cc(NC(=O)Cc3ccc(NC(=O)Nc4ccccc4)cc3)ccc21 [BX32] | 959 |
| Cc1ccccc1NC(=O)Nc1ccc(NC(=O)Cc2ccc3c(c2)C(=O)N(CCC(=O)O)CC(=O)N3C)cc1 [BX33] | 886 |
| CN1C(=O)CN(CCC(=O)O)C(=O)c2cc(NC(=O)Cc3ccc(NC(=O)Nc4ccccc4Cl)cc3)ccc21 [BX34] | 723 |
| Cc1ccccc1NC(=O)Nc1ccc(NC(=O)c2ccc3c(c2)NC(CC(=O)O)C(=O)N(C)C3)cc1 (stereo not shown) [BX36] | 646 |
| Cc1ccccc1NC(=O)Nc1ccc(CC(=O)Nc2cc3c(cc2Cl)N(C)C(=O)CN(CCC(=O)O)C3=O)cc1 [BX37] | 643 |
| Cc1ccccc1NC(=O)Nc1ccc(CC(=O)Nc2ccc3c(c2)C(=O)N(CCC(=O)O)C(C)C(=O)N3C)cc1 (stereo not shown) [BX38] | 550 |
| Cc1ccccc1NC(=O)Nc1ccc(CC(=O)Nc2ccc3c(c2)C(=O)N(CCC(=O)O)CC(=O)N3CCC(=O)O)cc1 [BX39] | 480 |
| Cc1ccccc1NC(=O)Nc1ccc(CC(=O)Nc2ccc3c(c2)C(=O)N(CCC(=O)O)CC(=O)N3C2CCCCC2)cc1 [BX40] | 438 |
| Cc1ccccc1NC(=O)Nc1ccc(CC(=O)Nc2ccc3c(c2)C(=O)N(C)CC(=O)N3CCC(=O)O)cc1 [BX42] | 326 |
| Cc1ccccc1NC(=O)Nc1ccc(CC(=O)Nc2ccc3c(c2)C(=O)N(CCC(=O)O)CC(=O)N3C2CCN(Cc3ccccc3)CC2)cc1 [BX43] | 273 |
| Cc1ccccc1NC(=O)Nc1ccc(CC(=O)Nc2ccc3c(c2)C(=O)N(CCC(=O)O)CC(=O)N3C)cc1 [BX44] | 257 |
| Cc1ccccc1NC(=O)Nc1ccc(CC(=O)Nc2ccc3c(c2)C(=O)N(CCC(=O)O)CC(=O)N3CC2CC2)cc1 [BX46] | 194 |
| Cc1ccccc1NC(=O)Nc1ccc(CC(=O)Nc2ccc3c(c2)C(=O)N(CCC(=O)O)CC(=O)N3Cc2ccc(F)cc2)cc1 [BX48] | 166 |
| CCC(C)N1C(=O)CN(CCC(=O)O)C(=O)c2cc(NC(=O)Cc3ccc(NC(=O)Nc4ccccc4C)cc3)ccc21 (stereo not shown) [BX49] | 163 |
| Cc1ccccc1NC(=O)Nc1ccc(CC(=O)Nc2ccc3c(c2)C(=O)N(CC(C)C(=O)O)CC(=O)N3C)cc1 (stereo not shown) [BX50] | 52.3 |
| Cc1ccccc1NC(=O)Nc1ccc(CC(=O)Nc2ccc3c(c2)C(=O)N(CCC(=O)O)CC(=O)N3CCc2ccccc2)cc1 [BX52] | 132 |

Source: patent publication US6686350B1, “Cell adhesion inhibitors” (Biogen, Inc., priority 1996, dated 2004)
